This note sets out measurements from patent publication US20070203215A1, “Methods & Compositions For Enhancing Pharmaceutical Treatments” (Taiji Biomedical, Inc., priority 1999, published 2007).

Data set [1] is described as follows: Blood-brain barrier penetration of loperamide, mouse hot-plate test. The note with it: loperamide alone, i.v. 1-16 mg/kg. It is filed as in vivo, mice. The source says: These increases were dose dependent with respect to loperamide.
In general terms: In hot-plate and tail-flick tests a longer latency is read as antinociception.

Data set [2] can be described thus: Enhancement of the oral bioavailability of paclitaxel and docetaxel in rats. It is filed as in vivo. The settings on record: male, Sprague-Dawley, rat, plasma, 10 mg/kg, Drug alone (10 mg/kg) oral; for AUC(0-t): read-out: AUC0-8. The protocol: In a further example, separate groups of eight male Sprague-Dawley rats (250-300 g body weight) with cannulae inserted into the jugular vein were purchased from Harlan-Sprague Dawley (Madison, Wis.). Animals were allowed free movement and access to water but were fasted for at least 8 h prior to the dose until study completion. […] Immediately prior to administration the mixture was diluted in saline to provide a paclitaxel or docetaxel concentration of 1mg/ml. Animals were then administered 10 μl/g body weight by oral gavage.
Serial blood samples (500 μl) were drawn prior to each dose (time 0) and at 0.5, 1, 2, 3, 4, 6 and 8 h through a cannula inserted into the jugular vein. The blood was collected into Microtainer® tubes containing EDTA anticoagulant. Whole blood was centrifuged under refrigeration at 2800 rpm for 10-20 minutes. Plasma samples were stored at −20° C. until analysis using a validated HPLC-MS method. Maximum plasma paclitaxel concentration (Cmax) and time to achieve this concentration (Tmax) were measured from concentration vs. time profiles. Area under the concentration vs. time curve from 0-8 hours (AUC0-8) was calculated using the linear and log trapezoidal methods in the rising and declining phases of the concentration vs. time curve respectively.

Data set [3] is described as follows: Clinical signs after saquinavir dose. It is filed as in vivo, Sprague Dawley rats. As for the experimental part: This clinical sign was no longer observable approximately 30 to 60 min after it was first observed.
The nature of another data set: in vivo. The settings on record: male, Sprague Dawley, rat; for concentration at 2 hr: 2 hr Post-Dose.
A short description of data set [4]: Saquinavir in rat cerebrospinal fluid and brain after oral ONT-093 or vehicle. It counts as in vivo, Sprague Dawley rats. The note with it: Group 4: after vehicle, 30 min after saquinavir dose, individual animals 4001-4004.
Protocol: Blood samples (ca 0.3 mL) were collected from 8 selected rats by jugular venipuncture during slight anesthesia pre-dose and at 0.25, 0.5, 1, 2, 4 and 8 post-dose (saquinavir dose). Cerebrospinal fluid (CSF) and brain tissue were collected terminally from the remaining 8 rats at ca 30 min following administration of the dose of saquinavir. Blood samples were collected into tubes containing EDTA and placed on wet ice pending centrifugation. Plasma, CSF and brain tissue samples were stored at ca −80° C. until analysis of saquinavir by LC/MS. The vehicle used was polyethylene glycol (PEG-400)1 Tween 20 (9:1; v:v).
A total of 16 male Sprague Dawley rats were received from Charles River Canada (Saint-Constant, Quebec). Animals were approximately 9 weeks of age at arrival and weighed ca 312-340 g. Four males were randomly assigned to each of Groups 1, 2, 3 and 4. On the day of dosing and following an overnight fast, animals were weighed (ca 305-323 g) and were administered their respective combination of doses. Animals of Groups 1 and 3 received a single oral dose of ONT-093 (20 mg/kg) by gavage at a dose volume of 2 mL/kg. Animals of Groups 2 and 4 received a single oral dose of the vehicle by gavage at a dose volume of 2 mL/kg. Approximately 30 min following administration of either ONT-093 or the vehicle, all animals received a single oral dose of saquinavir (20 mg/kg) by gavage at a dose volume of 1 mL/kg.
Following administration of saquinavir, blood samples (ca 0.3 mL in EDTA) were obtained from all rats of Groups 1 and 2 by jugular venipuncture during anesthesia with isoflurane (Ohmeda Pharmaceutical Products) at each of the following time-points: pre-dose (prior to administration of ONT-093 or vehicle) and 0.25, 0.5, 1, 2, 4 and 8 hr post-dose. Following administration of saquinavir, CSF was obtained from all animals of Groups 3 and 4 at 30 min following dose administration. CSF was collected (in tubes containing no anticoagulant) from the cistema magna during anesthesia with isoflurane. Following CSF collection, the animals were sacrificed by exsanguination via puncture of the vena cava and the brain was harvested from all these rats. Immediately following collection, all samples (blood, CSF and brain) were placed on ice until further processing or storage. Blood samples were centrifuged (ca 3080 g at ca 4° C. for 10 min) and the resulting plasma samples were stored at ca −80° C. pending analysis. CSF samples and brains were stored at ca −80° C. pending analysis.
Plasma samples, CSF samples and brains were analyzed for unchanged saquinavir using an LC/MS assay. Pharmacokinetic analysis was performed on plasma concentrations using the PhAST Software Program, Version 2.2-00 (Phoenix International Life Sciences Inc.). The highest observable concentration was assumed to be the peak concentration (Cmax); Time to Cmax was denoted Tmax. The area under the plasma concentration versus time-curve from time zero to the last measurable concentration [AUC(tf] was calculated by the linear trapezoidal method. Where applicable, numerical values were subjected to calculation of group means and % CV. Student-T-test with Satterthwaite approximation was performed on AUC and Cmax values to compare ONT-093 treated animals versus vehicle treated animals using SAS software program, Version 6.12 (SAS Institute Inc., Gary, N.C.). Where values were below limit of quantification, zero was used for pharmacokinetic analysis. The bioavailability (F) of saquinavir when administered with ONT-093 was calculated relative to the AUC values obtained from the animals receiving saquinavir following administration of the vehicle.
For data set [5] the following is noted: single agent + vehicle; paclitaxel 24 mg/kg i.v. Q5D x6 + 36 mg/kg i.v. Q5D x2; Formula 2 compound 30 mg/kg p.o. afternoon before and BID day of treatments. As for the experimental part:
Non-tumor bearing athymic mice were treated with the compound of Formula 2 and (or) paclitaxel as described.

Data set [6] can be described thus: Oral paclitaxel bioavailability enhancement in rats (mesylate salt). It counts as in vivo. The note with it: male, Sprague Dawley, rat, plasma, Group 2: paclitaxel 40 mg/kg p.o. + vehicle. The protocol: A total of 21 male Sprague Dawley rats were used. Animals were approximately 8 weeks of age at arrival and weighed ca 327-359 g.
Following analysis of paclitaxel, all remaining plasma were tested for a determination of the Formula 2 compound concentration.
Plasma samples were analyzed for unchanged paclitaxel using a liquid chromatography/mass spectroscopy (“LC/MS”) assay. […] The highest observable concentration was used as the peak concentration (Cmax). Time to Cmax was denoted as Tmax. […] The area under the plasma concentration curve extrapolated to infinity (AUC(I)) was calculated as the sum of AUC(0-t) plus the ratio of the last plasma concentration to the elimination rate constant. The terminal elimination constant (K) was calculated from the last 3 non-zero points of the log-linear regression. Half-life (tot) was determined by dividing 0.693 by K. The apparent plasma clearance (CL/F) was calculated for paclitaxel by dividing the nominal dose administered by AUC(I). […] Where values were below the limit of quantification, zero was used for pharmacokinetic analysis. Statistical analysis consisted of a Student-T-test with Two-sample unequal variance approximation and was performed on AUC90-t) and Cmax values to compare the Formula 2 compound treated animals vs. the corresponding vehicle treated animals.

The next data set relates to MDA/LCC6^MDR1 tumors. Nature of the data set: In vivo antitumor efficacy, orthotopic MDA/LCC6^MDR1 tumors. Also on record: species or system SCID/RAG2 mice. The settings on record: single agent alone; paclitaxel 12 mg/kg i.v.; Formula 2 free base 30 mg/kg p.o. The protocol:
Anti-tumor efficacy experiments with orthotopic MDA/LCC6 and MDA/LCC6^MDR1 tumors were conducted in female SCID/RAG2 mice. Ascites propagated cells (2×10^6 in 50 μl) were injected into mammary fat pads bilaterally on day 0 before randomization into groups of 5 mice per group. Paclitaxel (12 mg/kg/dose) was administered QD i.v. (tail vein) in 200 μl saline/Cremophor/ethanol (8/1/1 by volume) on days 5, 12, 19, and 26. The compound of Formula 2-free base (30 mg/kg/dose) was administered BID p.o. by gavage in 100 μl PEG 400/Tween 20 (9/1 by volume) on days 4-6, 11-13, 18-20, and 25-27. Mean body weights were recorded at least every other day. Tumor weight was monitored approximately every other day by caliper measurements and calculated according to the formula (Tumor weight =(length×width^2)÷2). This conversion formula was verified by comparing the calculation derived tumor weights to excised and weighed tumors. Animals bearing ulcerated tumors or where tumor weight exceeded 10% of the animal's body weight were terminated. The weights of the bilateral tumors were averaged for each mouse and mean tumor weights for each treatment group±standard error of the mean were calculated. Statistical analysis was carried out by Mann-Whitney test using GraphPad Prism software (San Diego, Calif.).
The compound of Formula 2 was administered the afternoon before, 2 hours before and 6 hours after each paclitaxel dose. The ability of orally administered Formula 2 compound to reverse MDR in solid tumors in vivo was assessed with the MDA/LCC6^MDR1 model. Because the compound of Formula 2 produced no effect on paditaxel blood levels, focus on up-front therapy (for naive animals) or minimal residual disease models was maintained, as opposed to established tumors. MDA/LCC6^MDR1 cells that express P-gp were resistant to paclitaxel treatment in vitro and this resistance was reversed by the compound of Formula 2 (FIG. 1). […] Similar results were obtained in three independent experiments with two different strains of immunocompromised mice (SCID/RAG-2 and athymic). […]

In a further data set the test system is tumor-bearing mice. The settings on record: 20 mg/kg paclitaxel alone once per week.

Structures are written as SMILES. Several values for one entry are separate records, joined by “and”; a condition that tells them apart may be missing. Identical values can stand only once.

As to `CN(C)C(=O)C(CCN1CCC(O)(c2ccc(Cl)cc2)CC1)(c1ccccc1)c1ccccc1` [Loperamide], the “Effect on mouse hot-plate escape time” value in data set [1] was “no effect”.

For `CC(=O)O[C@@]12CO[C@@H]1C[C@H](O)[C@@]1(C)C(=O)[C@H](O)C3=C(C)[C@@H](OC(=O)[C@H](O)[C@@H](NC(=O)OC(C)(C)C)c4ccccc4)C[C@@](O)([C@@H](OC(=O)c4ccccc4)[C@H]21)C3(C)C` [Docetaxel], in [2] (control of the OCFB series), the Cmax (usually the highest concentration seen after dosing) was determined as 37 ng/mL and the AUC(0-t) is 32 ng·h/mL. Further, in [2] (control of the OCM series), the Cmax is 30 ng/mL and the AUC(0-t) is 69 ng·h/mL.

Regarding `CC(C)(C)NC(=O)[C@@H]1C[C@@H]2CCCC[C@@H]2CN1C[C@@H](O)[C@H](Cc1ccccc1)NC(=O)[C@H](CC(N)=O)NC(=O)c1ccc2ccccc2n1` [Saquinavir], the “Rats with slight salivation immediately following the saquinavir dose” value (“Rats” below) in [3] (Group 1 (ONT-093 pretreatment)) is 3 of 4. Moreover, the “Rats” value in data set [3] (Group 2 (vehicle pretreatment)) was 2 of 4. In addition, in data set [3] (Group 3 (ONT-093 pretreatment)), the “Rats” value was 3 of 4. Also, in [3] (Group 4 (vehicle pretreatment)), the “Rats” value was 4 of 4. In the data set “in vivo” (Concentration of Saquinavir in plasma, 0.25 hr Post-Dose, Mean), this compound came in with a concentration at 0.25 hr of 84.6 ng/mL. This compound returned a concentration at 0.5 hr in “in vivo” (Concentration of Saquinavir in plasma, 0.5 hr Post-Dose, Mean) of 72.5 ng/mL. Further, in “in vivo” (Concentration of Saquinavir in plasma, 1 hr Post-Dose, Mean), the concentration at 1 hr was 99.5 ng/mL. This compound also had a concentration at 2 hr in “in vivo” (Concentration of Saquinavir in plasma) of 205 ng/mL. Moreover, the concentration at 2 hr in the data set “in vivo” (Concentration of Saquinavir in plasma, Mean) was determined as 157 ng/mL. Besides, the concentration at 4 hr in the data set “in vivo” (Concentration of Saquinavir in plasma, 4 hr Post-Dose, Mean) turned out to be 48.5 ng/mL. The concentration at 8 hr in the data set “in vivo” (Concentration of Saquinavir in plasma, 8 hr Post-Dose, Mean) is 4.92 ng/mL. Moreover, in the data set “in vivo” (po, 20 mg/kg), the AUC(0-inf) – broadly, total exposure, with the tail of the curve extrapolated – amounted to 524 ng·h/mL; the AUC(0-t) amounted to 514 ng·h/mL; the CL/F (commonly the apparent clearance, not corrected for the fraction that reaches the circulation) is 654 mL/min/kg; the peak level (Cmax) was 181 ng/mL. For the same compound, in the data set “in vivo” (po, 20 mg/kg), the Tmax (usually the time at which the peak concentration occurs) stood at 1.6 h. Also, in [4], the “Saquinavir Concentration in Brain” value was “BLQ (3×) and 1.40 ng/mL”; the “Saquinavir Concentration in CSF” value is given as “BLQ”. For the same compound, in data set [4] (male, Sprague Dawley, rat, brain, oral, 20 mg/kg), the concentration at 30 min turned out to be 1.4 ng/mL.

As to `CC(=O)O[C@H]1C(=O)[C@@]2(C)[C@H]([C@H](OC(=O)c3ccccc3)[C@]3(O)C[C@H](OC(=O)[C@H](O)[C@@H](NC(=O)c4ccccc4)c4ccccc4)C(C)=C1C3(C)C)[C@]1(OC(C)=O)CO[C@@H]1C[C@@H]2O` [Paclitaxel], in data set [5], the Survival is given as 0/4. Also, in data set [6], the AUC(0-t) was 67 ng·h/mL. Moreover, the half-life in data set [6] (read-out: Paclitaxel mean terminal phase half-life (t1/2) (converted)) was 3.9 h. Besides, in the data set on MDA/LCC6^MDR1 tumors, the “In vivo tumor growth compared to the vehicle control” value is listed as “no significant effect”. In addition, in data set [2] (control of the OCFB series), the Cmax was found to be 99 ng/mL and the AUC(0-t) stood at 266 ng·h/mL. Also, in data set [2] (control of the OCM series), the Cmax came to 75 ng/mL and the AUC(0-t) stood at 189 ng·h/mL. Also, in the data set on tumor-bearing mice, the Lethality came to 50% and the “Tumor growth / tumor formation” value is on record as “significantly inhibited tumor growth, but did not completely prevent tumor formation at any injection site”.
